According to PubChem BioAssay (NCI):
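Briefly, cells in 96-well plates were exposed to five compound concentrations for 48 h, and endpoints were estimated by linear interpolation. GI50 marks 50% less growth. At the TGI there is no net growth.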

What was measured:
Assay in all cases: NCI anticancer screen, dose series, 48 h
SR leukemia = test system: SR leukemia
BT-549 breast = test system: BT-549 breast
UO-31 renal = test system: UO-31 renal
SK-OV-3 ovarian = test system: SK-OV-3 ovarian
SF-268 CNS = test system: SF-268 CNS
OVCAR-3 ovarian = test system: OVCAR-3 ovarian
SW-620 colon = test system: SW-620 colon
PC-3 prostate = test system: PC-3 prostate
OVCAR-5 ovarian = test system: OVCAR-5 ovarian
M14 melanoma = test system: M14 melanoma

SMILES	GI50 (SR leukemia) [µM]	TGI (SR leukemia) [µM]	GI50 (BT-549 breast) [µM]	TGI (BT-549 breast) [µM]	GI50 (UO-31 renal) [µM]	TGI (UO-31 renal) [µM]	GI50 (SK-OV-3 ovarian) [µM]	TGI (SK-OV-3 ovarian) [µM]	GI50 (SF-268 CNS) [µM]	TGI (SF-268 CNS) [µM]	GI50 (OVCAR-3 ovarian) [µM]	TGI (OVCAR-3 ovarian) [µM]	GI50 (SW-620 colon) [µM]	TGI (SW-620 colon) [µM]	GI50 (PC-3 prostate) [µM]	TGI (PC-3 prostate) [µM]	GI50 (OVCAR-5 ovarian) [µM]	TGI (OVCAR-5 ovarian) [µM]	GI50 (M14 melanoma) [µM]	TGI (M14 melanoma) [µM]
O=C(c1ccccc1)c1ccc(Cl)c([N+](=O)[O-])c1	3.04	9.66	16.7	31.5	2.25	5.34	15.8	29.9	4.48	18	3.83	12.7	5.27	21.9	8.22	29.8	4.38	18.7	4.37	17.8
CCOC(=O)c1c[nH]c2c(OCc3ccccc3)c3ccccc3c(O)c2c1=O	21.3	> 100	12.7	37.8	21.7	> 100	26.3	> 100	12.9	50.7	11.1	51	7.95	> 100	2.97	> 68	54.7	> 100	11.3	> 59.4
Nc1ncnc2c1c(-c1cccc(OCc3ccccc3)c1)cn2C1CC(CN2CCCC2)C1 (stereo not given)	2.4	11.2	2.02	4.99	1.28	3.61	2.44	5.85	1.94	4.61	4.06	14.9	1.03	3.53	2.5	10.4	0.705	6.82	1.61	3.2
O=C1Nc2ccccc2C1(c1ccc(O)c(F)c1)c1ccc(O)c(F)c1	3.83	> 52.3	0.166	0.593	11.9	42.8	21.1	52	16.1	62.1	0.295	0.918	20.6	84.3	1.08	6.95	16.4	44.1	12	65.5
